IC50 data for 30 molecules are collected here from patent US20100076015A1, “Aminopyridine Derivatives” (VANTIA LIMITED, priority 2008, published 2010).

T1 sequence (P06870 25-262): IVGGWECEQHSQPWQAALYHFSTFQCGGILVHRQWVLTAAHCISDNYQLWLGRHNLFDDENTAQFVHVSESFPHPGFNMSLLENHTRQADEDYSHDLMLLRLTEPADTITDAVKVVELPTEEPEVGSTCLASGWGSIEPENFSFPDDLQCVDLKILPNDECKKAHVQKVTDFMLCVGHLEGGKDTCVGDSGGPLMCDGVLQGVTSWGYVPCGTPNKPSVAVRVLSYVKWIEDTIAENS

The assay has as its target T1, Human KLK1 (Homo sapiens, UniProt P06870).
T1 construct: purchased Callbiochem (Calbiochem)
Nature of the assay: Determination of the IC50 for KLK1 (fluorogenic substrate H-DVal-Leu-Arg-AFC). The format is biochemical. The settings on record: 37° C. The method in brief: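 IC50 values reflect residual human KLK1 activity, read as initial rate from optical absorbance change at 410 nm. Incubations ran at 37° C with H-DVal-Leu-Arg-AFC as substrate across a compound concentration series.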
As a reminder, the IC50 is the midpoint of a concentration-inhibition curve. A high value points to weaker potency. Molecule `CC(C)[C@H](C(=O)N[C@@H](Cc1ccc(Cl)c(Cl)c1)C(=O)NCc1ccc(N)nc1)N(C)C` [Example 399, (R)—N-[(S)-1-[(6-Amino-pyridin-3-ylmethyl)-carbamoyl]-2-(3,4-dichloro-phenyl)-ethyl]-2-dimethylamino-3-methyl-butyramide] yielded a half-maximal inhibitory concentration (IC50) of 0.74 nM. Turning to `Nc1ccc(CNC(=O)[C@H](Cc2c(F)c(F)c(F)c(F)c2F)NC(=O)c2cc3ccccc3[nH]2)cn1` [Example 329, 1H-Indole-2-carboxylic acid {(S)-1-[(6-amino-pyridin-3-ylmethyl)-carbamoyl]-2-pentafluorophenyl-ethyl}-amide], the IC50 was 299 nM. Against the preceding molecule, the IC50 is about 400-fold higher. In turn, `CCN(C)[C@@H](CO)C(=O)N[C@@H](Cc1ccc(F)c(F)c1)C(=O)NCc1ccc(N)nc1` [Example 361, (S)—N-[(S)-1-[(6-Amino-pyridin-3-ylmethyl)-carbamoyl]-2-(3,4-difluoro-phenyl)-ethyl]-2-(ethyl-methyl-amino)-3-hydroxy-propionamide] registered a half-maximal inhibitory concentration (IC50) of 55.6 nM. This IC50 is about 5.4-fold lower than that of the molecule before. In turn, `Cc1cc(C)c(C(=O)N[C@@H](Cc2ccccc2C(F)(F)F)C(=O)NCc2ccc(N)nc2C)[nH]1` [Example 282, 3,5-Dimethyl-1H-pyrrole-2-carboxylic acid [(S)-1-[(6-amino-2-methyl-pyridin-3-ylmethyl)-carbamoyl]-2-(2-trifluoromethyl-phenyl)-ethyl]-amide] registered an IC50 of 1.3 nM.

`Cc1cc(C)c(C(=O)N[C@@H](Cc2ccc(Cl)cc2)C(=O)NCc2ccc(N)nc2)[nH]1` [Example 246, 3,5-Dimethyl-1H-pyrrole-2-carboxylic acid [(S)-1-[(6-amino-pyridin-3-ylmethyl)-carbamoyl]-2-(4-chloro-phenyl)-ethyl]-amide] had an IC50 of 3.5 nM. In the case of `Cc1cc[nH]c1C(=O)N[C@@H](Cc1cc(F)cc(F)c1)C(=O)NCc1ccc(N)nc1` [Example 270, 3-Methyl-1H-pyrrole-2-carboxylic acid [(S)-1-[(6-amino-pyridin-3-ylmethyl)-carbamoyl]-2-(3,5-difluoro-phenyl)-ethyl]-amide] it was 20.9 nM. For `CCC(C)[C@H](N)C(=O)N[C@@H](Cc1ccc(F)c(F)c1)C(=O)NCc1ccc(N)nc1` (stereo partly drawn) [Example 83, (S)-2-Amino-3-methyl-pentanoic acid [(S)-1-[(6-amino-pyridin-3-ylmethyl)-carbamoyl]-2-(3,4-difluoro-phenyl)-ethyl]-amide], the half-maximal inhibitory concentration (IC50) is 158 nM. For the molecule `CCC(C)[C@@H](N)C(=O)N[C@@H](Cc1ccc(F)c(F)c1)C(=O)NCc1ccc(N)nc1` (stereo partly drawn) [Example 32, (R)-2-Amino-3-methyl-pentanoic acid [(S)-1-[(6-amino-pyridin-3-ylmethyl)-carbamoyl]-2-(3,4-difluoro-phenyl)-ethyl]-amide], the half-maximal inhibitory concentration (IC50) came out at 2.8 nM. Compared with the last molecule, the IC50 is about 56-fold lower. Regarding `COC(=O)CN1CCC[C@@H]1C(=O)N[C@@H](Cc1ccc(F)c(F)c1)C(=O)NCc1ccc(N)nc1` [Example 134, {(R)-2-[(S)-1-[(6-Amino-pyridin-3-ylmethyl)-carbamoyl]-2-(3,4-difluoro-phenyl)-ethylcarbamoyl]-pyrrolidin-1-yl}-acetic acid methyl ester], the 50% inhibitory concentration (IC50) was 13.5 nM. Molecule `Cc1nc(N)ccc1CNC(=O)[C@H](Cc1ccc(Cl)c(Cl)c1)NC(=O)[C@H](N)CC1CCCCC1` [Example 200, (R)-2-Amino-N-[(S)-1-[(6-amino-2-methyl-pyridin-3-ylmethyl)-carbamoyl]-2-(3,4-dichloro-phenyl)-ethyl]-3-cyclohexyl-propionamide] showed a half-inhibitory concentration (IC50) of 22.1 nM. Molecule `CC(C)N(C)[C@H](C)C(=O)N[C@@H](Cc1ccc(F)cc1)C(=O)NCc1ccc(N)nc1` [Example 180, (R)—N-[(S)-1-[(6-Amino-pyridin-3-ylmethyl)-carbamoyl]-2-(4-fluoro-phenyl)-ethyl]-2-(isopropyl-methyl-amino)-propionamide] came in with a half-inhibitory concentration (IC50) of 7.9 nM. Compared with the last molecule, the IC50 is about 2.8-fold lower. For the molecule `CCC(C)[C@@H](NC)C(=O)N[C@@H](Cc1ccc(F)c(F)c1)C(=O)NCc1ccc(N)nc1` (single isomer, unassigned) [Example 53], the IC50 is 11.2 nM. In the case of `CC(C)N1CCC[C@@H]1C(=O)N[C@@H](Cc1ccncc1)C(=O)NCc1ccc(N)nc1` [Example 129, (R)-1-Isopropyl-pyrrolidine-2-carboxylic acid {(S)-1-[(6-amino-pyridin-3-ylmethyl)-carbamoyl]-2-pyridin-4-yl-ethyl}-amide] it was 215 nM; in that of `Nc1ccc(CNC(=O)[C@H](Cc2ccc(F)cc2)NC(=O)c2ncc[nH]2)cn1` [Example 287, 1H-Imidazole-2-carboxylic acid [(S)-1-[(6-amino-pyridin-3-ylmethyl)-carbamoyl]-2-(4-fluoro-phenyl)-ethyl]-amide], 75.6 nM. Molecule `CCC(C)[C@@H](NC)C(=O)N[C@@H](Cc1ccc(Cl)cc1)C(=O)NCc1ccc(N)nc1` (stereo partly drawn) [Example 46, (R)-3-Methyl-2-methylamino-pentanoic acid [(S)-1-[(6-amino-pyridin-3-ylmethyl)-carbamoyl]-2-(4-chloro-phenyl)-ethyl]-amide] gave an IC50 of 1.2 nM. Molecule `CC(C)N1CCC[C@@H]1C(=O)N[C@@H](Cc1ccc(F)c(F)c1)C(=O)NCc1ccc(N)nc1` [Example 6, (R)-1-Isopropyl-pyrrolidine-2-carboxylic acid [(S)-1-[(6-amino-pyridin-3-ylmethyl)-carbamoyl]-2-(3,4-difluoro-phenyl)-ethyl]-amide] had an IC50 of 2 nM. This IC50 lies about 1.7-fold higher than the previous one.

Regarding `C[C@H](C(=O)N[C@@H](Cc1ccc(Cl)c(Cl)c1)C(=O)NCc1ccc(N)nc1)N(C)S(C)(=O)=O` [Example 212, (R)—N-[(S)-1-[(6-Amino-pyridin-3-ylmethyl)-carbamoyl]-2-(3,4-dichloro-phenyl)-ethyl]-2-(methanesulfonyl-methyl-amino)-propionamide], the IC50 turned out to be 29.8 nM. With `CN1CCC[C@@H]1C(=O)N[C@@H](CC1CCCCC1)C(=O)NCc1ccc(N)nc1` [Example 115, (R)-1-Methyl-pyrrolidine-2-carboxylic acid {(S)-1-[(6-amino-pyridin-3-ylmethyl)-carbamoyl]-2-cyclohexyl-ethyl}-amide], the IC50 came to 19.5 nM. In the case of `CCN(CC)[C@H](CO)C(=O)N[C@@H](Cc1ccc(F)c(F)c1)C(=O)NCc1ccc(N)nc1` [Example 363, (R)—N-[(S)-1-[(6-Amino-pyridin-3-ylmethyl)-carbamoyl]-2-(3,4-difluoro-phenyl)-ethyl]-2-diethylamino-3-hydroxy-propionamide], inhibition was half-maximal at 84.4 nM (IC50). `CN(C/C=C/c1ccccc1)CC(=O)N[C@@H](Cc1ccc(F)c(F)c1)C(=O)NCc1ccc(N)nc1` [Example 162, (S)—N-(6-Amino-pyridin-3-ylmethyl)-3-(3,4-difluoro-phenyl)-2-{2-[methyl-((E)-3-phenyl-allyl)-amino]-acetylamino}-propionamide] returned an IC50 of 38.1 nM. `Nc1ccc(CNC(=O)[C@H](Cc2ccc(Cl)c(Cl)c2)NC(=O)[C@H](N)c2ccccc2)cn1` [Example 57, (S)-2-((R)-2-Amino-2-phenyl-acetylamino)-N-(6-amino-pyridin-3-ylmethyl)-3-(3,4-dichloro-phenyl)-propionamide] had an IC50 of 4.6 nM. In the case of `Cc1cc(C)c(C(=O)N[C@@H](Cc2c[nH]c3ccccc23)C(=O)NCc2ccc(N)nc2C)[nH]1` [Example 283, 3,5-Dimethyl-1H-pyrrole-2-carboxylic acid [(S)-1-[(6-amino-2-methyl-pyridin-3-ylmethyl)-carbamoyl]-2-(1H-indol-3-yl)-ethyl]-amide], the half-inhibitory concentration (IC50) came out at 5.1 nM.

Turning to `COc1ccc2[nH]c(C(=O)N[C@@H](Cc3cccc(C(F)(F)F)c3)C(=O)NCc3ccc(N)nc3C)cc2c1` [Example 310, 5-Methoxy-1H-indole-2-carboxylic acid [(S)-1-[(6-amino-2-methyl-pyridin-3-ylmethyl)-carbamoyl]-2-(3-trifluoromethyl-phenyl)-ethyl]-amide], the IC50 is 48.9 nM. Compared with the last molecule, the IC50 is about 9.6-fold higher.

With `Nc1ccc(CNC(=O)[C@H](Cc2cccc(C(F)(F)F)c2)NC(=O)c2cc3ccccc3[nH]2)cn1` [Example 307, 1H-Indole-2-carboxylic acid [(S)-1-[(6-amino-pyridin-3-ylmethyl)-carbamoyl]-2-(3-trifluoromethyl-phenyl)-ethyl]-amide], the half-inhibitory concentration (IC50) came to 22 nM. For `CCCN(C)[C@@H](C)C(=O)N[C@@H](Cc1ccc(F)cc1)C(=O)NCc1ccc(N)nc1` [Example 368, (S)—N-[(S)-1-[(6-Amino-pyridin-3-ylmethyl)-carbamoyl]-2-(4-fluoro-phenyl)-ethyl]-2-(methyl-propyl-amino)-propionamide], 19.4 nM corresponded to half-maximal inhibition (IC50). The IC50 values of the last two molecules are within 1.5-fold of each other. `COc1ccc2[nH]c(C(=O)N[C@@H](Cc3cccc(Cl)c3)C(=O)NCc3ccc(N)nc3)cc2c1` [Example 314, 5-Methoxy-1H-indole-2-carboxylic acid [(S)-1-[(6-amino-pyridin-3-ylmethyl)-carbamoyl]-2-(3-chloro-phenyl)-ethyl]-amide] returned a half-inhibitory concentration (IC50) of 15.6 nM. With `Nc1ccc(CNC(=O)[C@H](Cc2cccc(C(F)(F)F)c2)NC(=O)CN2CCCCC2)cn1` [Example 420, (S)—N-(6-Amino-pyridin-3-ylmethyl)-2-(2-piperidin-1-yl-acetylamino)-3-(3-trifluoromethyl-phenyl)-propionamide], the midpoint of inhibition, the IC50, lay at 117 nM. In the case of `CN[C@@H](C(=O)N[C@@H](Cc1cccc(Cl)c1)C(=O)NCc1ccc(N)nc1)C(C)C` [Example 341, (R)—N-[(S)-1-[(6-Amino-pyridin-3-ylmethyl)-carbamoyl]-2-(3-chloro-phenyl)-ethyl]-3-methyl-2-methylamino-butyramide] it was 2.2 nM; in that of `CCN1CCC[C@@H]1C(=O)N[C@@H](Cc1cccc(Cl)c1)C(=O)NCc1ccc(N)nc1` [Example 138, (R)-1-Ethyl-pyrrolidine-2-carboxylic acid [(S)-1-[(6-amino-pyridin-3-ylmethyl)-carbamoyl]-2-(3-chloro-phenyl)-ethyl]-amide], 39.8 nM; in that of `CCN(CC)C(C)C(=O)N(C)C(CC1CCCCC1)C(=O)NCc1ccc(N)nc1` [Example 438, S)—N-{(S)-1-[(6-Amino-pyridin-3-ylmethyl)-carbamoyl]-2-cyclohexyl-ethyl}-2-diethylamino-N-methyl-propionamide], 5.4 nM.
